Experiments:
[1] = molecular target: Mu-type opioid receptor (Cavia porcellus, UniProt P97266); test: Activity at mu opioid receptor by guinea pig ileum assay; assay type: functional, tissue-based
[2] = molecular target: Mu-type opioid receptor (Rattus norvegicus, UniProt P33535); test: Displacement of [3H]DAMGO from mu opioid receptor in rat synaptosomes P2 fraction; assay type: subcellular, Brain
[3] = molecular target: Delta-type opioid receptor (Rattus norvegicus, UniProt P33533); test: Displacement of [3H]deltorphin II from delta opioid receptor in rat synaptosomes P2 fraction; assay type: subcellular, Brain
Sequence of Delta-type opioid receptor (Rattus norvegicus, UniProt P33533) (P33533 whole entry): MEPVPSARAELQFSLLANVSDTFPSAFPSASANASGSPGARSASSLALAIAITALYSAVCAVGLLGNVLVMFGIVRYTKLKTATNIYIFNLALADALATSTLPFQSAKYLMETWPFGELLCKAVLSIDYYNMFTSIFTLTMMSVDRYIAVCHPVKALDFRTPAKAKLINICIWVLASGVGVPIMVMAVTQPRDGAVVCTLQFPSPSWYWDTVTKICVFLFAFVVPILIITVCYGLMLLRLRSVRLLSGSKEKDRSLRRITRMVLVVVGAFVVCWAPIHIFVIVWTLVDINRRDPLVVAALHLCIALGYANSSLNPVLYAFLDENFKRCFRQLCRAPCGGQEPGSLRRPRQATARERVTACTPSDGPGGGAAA

[4] = molecular target: Opioid receptors; mu & delta (Rattus norvegicus) (UniProt P33533+P33535); test: Selectivity for rat mu opioid receptor over rat delta opioid receptor; assay type: protein assay
Sequence of Opioid receptors; mu & delta (Rattus norvegicus) (P33533 whole entry, looked up): as the sequence (P33533 whole entry) above
Sequence of Opioid receptors; mu & delta (Rattus norvegicus) (P33535 whole entry, looked up): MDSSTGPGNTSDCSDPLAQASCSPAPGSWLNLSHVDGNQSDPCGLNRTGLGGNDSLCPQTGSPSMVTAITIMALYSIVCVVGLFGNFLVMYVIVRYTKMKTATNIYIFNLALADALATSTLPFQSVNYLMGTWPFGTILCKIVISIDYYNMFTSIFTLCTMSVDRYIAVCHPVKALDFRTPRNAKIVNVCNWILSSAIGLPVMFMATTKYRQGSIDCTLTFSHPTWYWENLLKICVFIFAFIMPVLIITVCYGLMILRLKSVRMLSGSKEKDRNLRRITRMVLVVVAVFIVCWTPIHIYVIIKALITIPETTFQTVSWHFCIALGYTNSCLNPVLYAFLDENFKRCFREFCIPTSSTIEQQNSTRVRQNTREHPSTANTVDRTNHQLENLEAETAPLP

[5] = molecular target: Delta-type opioid receptor (Mus musculus) (UniProt P32300); test: (§1) Activity at delta opioid receptor assessed as inhibition of muscle contraction in mouse vas deferens assay; assay type: functional, tissue-based; details: for inhibition: concentration not given here; for Activity: filed as partial agonist
Sequence of Delta-type opioid receptor (Mus musculus) (P32300 whole entry): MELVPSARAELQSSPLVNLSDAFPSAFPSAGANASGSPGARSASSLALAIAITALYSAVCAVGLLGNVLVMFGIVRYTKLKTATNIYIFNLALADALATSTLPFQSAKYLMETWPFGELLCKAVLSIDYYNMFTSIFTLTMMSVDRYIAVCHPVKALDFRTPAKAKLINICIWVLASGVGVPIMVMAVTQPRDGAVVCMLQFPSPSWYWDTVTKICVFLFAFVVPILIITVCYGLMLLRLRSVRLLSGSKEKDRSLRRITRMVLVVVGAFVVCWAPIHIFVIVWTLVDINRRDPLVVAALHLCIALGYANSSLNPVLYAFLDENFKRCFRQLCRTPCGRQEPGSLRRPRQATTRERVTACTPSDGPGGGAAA

[6] = molecular target: Delta-type opioid receptor (Mus musculus, UniProt P32300); test: as §1; assay type: functional, tissue-based
Sequence of Delta-type opioid receptor (Mus musculus, UniProt P32300) (P32300 whole entry): as above

Sequence of Mu-type opioid receptor (Rattus norvegicus, UniProt P33535) (P33535 whole entry): as the sequence (P33535 whole entry, looked up) above
Sequence of Mu-type opioid receptor (Cavia porcellus, UniProt P97266) (P97266 whole entry): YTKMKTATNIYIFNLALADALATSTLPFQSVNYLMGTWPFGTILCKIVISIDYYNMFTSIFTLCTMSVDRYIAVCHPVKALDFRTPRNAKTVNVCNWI

Q: For Cc1cc(O)cc(C)c1C[C@H](N)C(=O)NCCCCc1[nH]c(=O)c(CCCNC(=O)[C@@H](N)Cc2c(C)cc(O)cc2C)nc1C, which IC50 [1] is on record?
A: 4.93 nM

Q: And the Ki [2]?
A: 0.051 nM

Q: What about the Ki [3] of the same compound?
A: 18.8 nM

Q: And the Ratio Ki [4]?
A: 369

Q: What about the inhibition [5] of the same compound?
A: 44%

Q: And the Activity [5]?
A: Partial agonist

Q: What about the IC50 [6] of the same compound?
A: > 10000 nM

Q: Which Ki [2] does the source give for Cc1nc(CCCNC(=O)[C@@H](N)Cc2ccc(O)cc2)c(=O)[nH]c1CCCCNC(=O)[C@@H](N)Cc1ccc(O)cc1 here?
A: 27.4 nM

Q: What about the Ki [3] of the same compound?
A: 2770 nM

Q: And the Ratio Ki [4]?
A: 65

Q: Cc1cc(O)cc(C)c1C[C@H](N)C(=O)NCCCCc1nc(C)c(CCCNC(=O)[C@@H](N)Cc2c(C)cc(O)cc2C)[nH]c1=O was tested. Which IC50 [1] did it give?
A: 1.79 nM

Q: What about the Ki [2] of the same compound?
A: 0.021 nM

Q: What about the Ki [3] of the same compound?
A: 31.9 nM

Q: And the Ratio Ki [4]?
A: 1520

Q: What about the inhibition [5] of the same compound?
A: 60%

Q: What about the Activity [5] of the same compound?
A: Partial agonist

Q: And the IC50 [6]?
A: 25.8 nM

Q: Cc1nc(CCCCNC(=O)[C@@H](N)Cc2ccc(O)cc2)c(=O)[nH]c1CCCNC(=O)[C@@H](N)Cc1ccc(O)cc1 was tested. Which Ki [2] did it give?
A: 7.58 nM

Q: And the Ki [3]?
A: 924 nM

Q: What about the Ratio Ki [4] of the same compound?
A: 220

— ChEMBL document CHEMBL1139715, “Synthesis of 3,6-bis[H-Tyr/H-Dmt-NH(CH2)m,n]-2(1H)pyrazinone derivatives: function of alkyl chain length on opioid activity” (Bioorg Med Chem Lett, 2006)
